Reference: PubChem BioAssay AID248 (DTP/NCI, 2004)
“And” between values parts separate entries of the source, which are not always exact repeats. Identical values can stand only once. Inconclusive results and toxic doses are left out. No stated cut-off is given here; in the data, active means T/C of 150% or more; inactive means T/C below 125%.

Tested on: L1210 leukemia ip in BDF1 mice, survival T/C
Test: NCI In Vivo Anticancer Drug Screen. Data for tumor model L1210 Leukemia (intraperitoneal) in B6D2F1 (BDF1) mice
Details: endpoint: mean survival time, higher = longer survival
Procedure, shortened: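 Mice bearing the transplanted tumor received compound or vehicle. Survival of the treated group was divided by that of the vehicle-treated control group to give the ratio.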

[1] = dose: 100.0 mg/kg/injection, schedule: Q01DX009 (ip), vehicle: Klucel (hydroxypropylcellulose) (HPC)
[2] = dose: 200.0 mg/kg/injection, schedule: Q01DX009 (ip), vehicle: Klucel (hydroxypropylcellulose) (HPC)
[3] = dose: 400.0 mg/kg/injection, schedule: Q01DX009 (ip), vehicle: Klucel (hydroxypropylcellulose) (HPC)
[4] = dose: 100.0 mg/kg/injection, schedule: Q04DX003 (ip), vehicle: saline
[5] = dose: 100.0 mg/kg/injection, schedule: Q01DX009 (ip), vehicle: saline with Tween-80

Measured: T/C

CCOCCOCCOC(C)Oc1ccc(C(=O)OCC)cc1 (stereo not given)
inactive: dose: 100.0 mg/kg/injection, schedule: Q04DX002 (ip), vehicle: saline with Tween-80 103 % of control | dose: 200.0 mg/kg/injection, schedule: Q04DX002 (ip), vehicle: saline with Tween-80 100 % of control | dose: 400.0 mg/kg/injection, schedule: Q04DX002 (ip), vehicle: saline with Tween-80 107 % of control

COc1ccc(S(=O)(=O)Nc2cc([N+](=O)[O-])ccc2OC)cc1
inactive: [1] 103 % of control | [2] 97 % of control | [3] 95 % of control

CCNC(=O)Nc1cccc(NC(=O)C(=O)O)c1 (tested in a mixture with another compound)
inactive: dose: 100.0 mg/kg/injection, schedule: Q01DX001 (ip), vehicle: gum acacia 87 % of control | dose: 200.0 mg/kg/injection, schedule: Q01DX001 (ip), vehicle: gum acacia 97 % of control | dose: 400.0 mg/kg/injection, schedule: Q01DX001 (ip), vehicle: gum acacia 96 % of control

CCCCCNCCO
inactive: dose: 75.0 mg/kg/injection, schedule: Q01DX001 (ip), vehicle: saline 105 % of control | dose: 150.0 mg/kg/injection, schedule: Q01DX001 (ip), vehicle: saline 105 % of control | dose: 300.0 mg/kg/injection, schedule: Q01DX001 (ip), vehicle: saline 109 % of control

S=P(c1ccccc1)(N1CCCCC1)N1CCCCC1
inactive: [4] 97 % of control | dose: 200.0 mg/kg/injection, schedule: Q04DX003 (ip), vehicle: saline 93 % of control

c1ccc2c(c1)C(=NN=C1c3ccccc3-c3ccccc31)c1ccccc1-2
inactive: dose: 100.0 mg/kg/injection, schedule: Q01DX001 (ip), vehicle: carboxymethylcellulose (CMC) 97 % of control | [1] 93 % of control | dose: 200.0 mg/kg/injection, schedule: Q01DX001 (ip), vehicle: carboxymethylcellulose (CMC) 94 % of control | [2] 104 % of control | dose: 400.0 mg/kg/injection, schedule: Q01DX001 (ip), vehicle: carboxymethylcellulose (CMC) 94 % of control | [3] 96 % of control

CC(=O)NCCN
inactive: [4] 92 % of control | dose: 400.0 mg/kg/injection, schedule: Q04DX003 (ip), vehicle: saline 108 % of control

[O-][n+]1c(Cl)cc(Cl)c2ccccc21
inactive: dose: 25.0 mg/kg/injection, schedule: Q01DX009 (ip), vehicle: saline with Tween-80 95 % of control | dose: 50.0 mg/kg/injection, schedule: Q01DX009 (ip), vehicle: saline with Tween-80 114 % of control | [5] 97 % of control and 102 % of control

O=C(Nc1ccc(Cl)cc1)c1ccccc1Cl
inactive: dose: 100.0 mg/kg/injection, schedule: Q04DX002 (ip), vehicle: Klucel (hydroxypropylcellulose) (HPC) 93 % of control | dose: 200.0 mg/kg/injection, schedule: Q04DX002 (ip), vehicle: Klucel (hydroxypropylcellulose) (HPC) 100 % of control | dose: 400.0 mg/kg/injection, schedule: Q04DX002 (ip), vehicle: Klucel (hydroxypropylcellulose) (HPC) 100 % of control

O=c1cc(Cc2ccccc2)[nH]c(=S)[nH]1
inactive: [5] 94 % of control | dose: 100.0 mg/kg/injection, schedule: Q04DX003 (ip), vehicle: saline with Tween-80 99 % of control | dose: 200.0 mg/kg/injection, schedule: Q01DX009 (ip), vehicle: saline with Tween-80 93 % of control | dose: 200.0 mg/kg/injection, schedule: Q04DX003 (ip), vehicle: saline with Tween-80 97 % of control | dose: 400.0 mg/kg/injection, schedule: Q01DX009 (ip), vehicle: saline with Tween-80 96 % of control | dose: 400.0 mg/kg/injection, schedule: Q04DX003 (ip), vehicle: saline with Tween-80 100 % of control

O=C1OC(c2ccccc2)CC12CCCCC2 (stereo not given)
inactive: dose: 100.0 mg/kg/injection, schedule: Q04DX003 (ip), vehicle: Klucel (hydroxypropylcellulose) (HPC) 102 % of control | dose: 200.0 mg/kg/injection, schedule: Q04DX003 (ip), vehicle: Klucel (hydroxypropylcellulose) (HPC) 100 % of control | dose: 400.0 mg/kg/injection, schedule: Q04DX003 (ip), vehicle: Klucel (hydroxypropylcellulose) (HPC) 100 % of control

C[CH2][Ge]([CH2]C)[O][Ge]([CH2]C)[CH2]C
inactive: dose: 5.0 mg/kg/injection, schedule: Q04DX002 (ip), vehicle: saline with Tween-80 95 % of control | dose: 10.0 mg/kg/injection, schedule: Q04DX002 (ip), vehicle: saline with Tween-80 100 % of control | dose: 20.0 mg/kg/injection, schedule: Q04DX002 (ip), vehicle: saline with Tween-80 95 % of control
